The text below walks through data of ChEMBL document CHEMBL4334495, “Design and Biological Evaluation of m-Xylene Thioether-Stapled Short Helical Peptides Targeting the HIV-1 gp41 Hexameric Coiled-Coil Fusion Complex” (J Med Chem, 2019).

Data set [1] deals with Human immunodeficiency virus 1. Nature of the data set: Antiviral activity against HIV1 NL4-3 infected in human MT2 cells or CEMx174 5.25 M7 cells assessed as reduction in p24 Gag protein production measured at 4 days post infection by ELISA. Type of data set: functional, organism-based. The settings on record: Human immunodeficiency virus 1, NL4-3, 96 h.
In data set [2] the test system is Human immunodeficiency virus 1. Nature of the data set: Synergistic antiviral activity against T2635 resistant HIV1 LAI harboring Q66R mutant infected in human MT2 cells or CEMx174 5.25 M7 cells assessed as reduction in p24 Gag protein production by measuring combination index at 25:1 compound ratio measured at 4 days post infection by ELISA. Type of data set: functional, M:B_Lai. A general note: In an ELISA, binding on a coated surface is turned into a signal by an enzyme label.

Data set [3] concerns Human immunodeficiency virus 1. Nature of the data set: Synergistic antiviral activity against T20 resistant HIV1 NL4-3 harboring with V38E/N42T mutant infected in human MT2 cells or CEMx174 5.25 M7 cells assessed as reduction in p24 Gag protein production by measuring combination index at 150:1 compound to HP23 ratio measured at 4 days post-infection by ELISA. Type of data set: functional.

Data set [4] has as its system Human immunodeficiency virus 1. Nature of the data set: Ratio of EC50 for antiviral activity against HIV1 NL4-3 infected in human MT2 cells or CEMx174 5.25 M7 cells in absence of HP23 to EC50 for antiviral activity against HIV1 NL4-3 infected in human MT2 cells or CEMx174 5.25 M7 cells at 5:1 compound to HP23 ratio. The class given is functional.
Data set [5] relates to Human immunodeficiency virus 1. Nature of the data set: Ratio of EC50 for antiviral activity against R5 tropic HIV-1 subtype-B Bal infected in human MT2 cells or CEMx174 5.25 M7 cells in absence of HP23 to EC50 for antiviral activity against R5 tropic HIV-1 subtype-B Bal infected in human MT2 cells or CEMx174 5.25 M7 cells at 6:1 compound to HP23 ratio. Type of data set: functional, HIV-1 group M.

For data set [6], the target named is Envelope glycoprotein gp160 (Human immunodeficiency virus 1) (UniProt Q6QLK5). The data set can be described thus: Ratio of EC50 for inhibition of HIV1 gp41-induced cell-cell fusion between viral envelope expressing human HL2/3 cells to CD4/CCR5 receptor expressing TZM-bl cells in absence of HP23 to EC50 for inhibition of HIV1 gp41-induced cell-cell fusion between viral envelope expressing human HL2/3 cells to CD4/CCR5 receptor expressing TZM-bl cells at 4:1 compound to HP23 ratio.
Sequence of Envelope glycoprotein gp160 (Human immunodeficiency virus 1) (Q6QLK5 1-814): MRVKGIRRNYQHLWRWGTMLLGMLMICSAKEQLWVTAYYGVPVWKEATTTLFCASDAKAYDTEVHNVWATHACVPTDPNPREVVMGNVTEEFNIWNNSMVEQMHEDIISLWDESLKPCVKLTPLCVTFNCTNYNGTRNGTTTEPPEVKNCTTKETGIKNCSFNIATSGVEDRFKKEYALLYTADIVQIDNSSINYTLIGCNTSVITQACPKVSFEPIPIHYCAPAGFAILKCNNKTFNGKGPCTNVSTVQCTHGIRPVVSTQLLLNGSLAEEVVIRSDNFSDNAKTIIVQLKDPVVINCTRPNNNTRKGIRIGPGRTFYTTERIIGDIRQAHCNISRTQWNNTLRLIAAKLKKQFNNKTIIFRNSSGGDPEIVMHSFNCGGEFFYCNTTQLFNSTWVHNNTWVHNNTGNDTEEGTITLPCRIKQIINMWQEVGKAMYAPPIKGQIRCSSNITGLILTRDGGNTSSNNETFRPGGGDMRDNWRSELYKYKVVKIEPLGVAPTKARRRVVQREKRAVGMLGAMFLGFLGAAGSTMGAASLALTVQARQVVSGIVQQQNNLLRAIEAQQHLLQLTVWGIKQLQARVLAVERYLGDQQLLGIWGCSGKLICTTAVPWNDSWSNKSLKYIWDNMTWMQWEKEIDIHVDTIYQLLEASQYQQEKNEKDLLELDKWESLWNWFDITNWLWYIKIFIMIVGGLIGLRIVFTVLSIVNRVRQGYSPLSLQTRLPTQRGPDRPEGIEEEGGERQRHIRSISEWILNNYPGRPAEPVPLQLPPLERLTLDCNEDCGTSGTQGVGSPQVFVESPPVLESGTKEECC

For data set [7], the system named is Human immunodeficiency virus 1. Nature of the data set: Antiviral activity against X4 tropic HIV-1 subtype-B 3B infected in human MT2 cells or CEMx174 5.25 M7 cells assessed as reduction in p24 Gag protein production measured at 4 days post-infection by ELISA. The class given is functional, cell-based, HIV-1 group M. The settings on record: Human immunodeficiency virus 1, 3B, 96 h.

The test system of data set [8] is Human immunodeficiency virus 1. The data set can be described thus: Synergistic antiviral activity against T2635 resistant HIV1 LAI harboring Q66R mutant infected in human MT2 cells or CEMx174 5.25 M7 cells assessed as reduction in p24 Gag protein production by measuring combination index at 50:1 compound ratio measured at 4 days post infection by ELISA. Type of data set: functional, M:B_Lai.

For data set [9], the system named is Human immunodeficiency virus 1. The data set can be described thus: Synergistic antiviral activity against HIV1 NL4-3 infected in human MT2 cells or CEMx174 5.25 M7 cells assessed as reduction in p24 Gag protein production by measuring combination index at 5:1 compound to HP23 ratio measured at 4 days post-infection by ELISA. Type of data set: functional.
In data set [10] the test system is Human immunodeficiency virus 1. The data set can be described thus: Synergistic antiviral activity against HIV1 NL4-3 infected in human MT2 cells or CEMx174 5.25 M7 cells assessed as reduction in p24 Gag protein production by measuring combination index at 10:1 compound to HP23 ratio measured at 4 days post-infection by ELISA. Type of data set: functional.
Data set [11] concerns Human immunodeficiency virus 1. Nature of the data set: Antiviral activity against T2635 resistant HIV1 LAI harboring Q66R mutant infected in human MT2 cells or CEMx174 5.25 M7 cells assessed as reduction in p24 Gag protein production measured at 4 days post-infection by ELISA. Type of data set: functional, organism-based, M:B_Lai.
In data set [12] the target is Envelope glycoprotein gp160 (Human immunodeficiency virus 1) (UniProt Q6QLK5). The data set can be described thus: Ratio of EC50 for inhibition of HIV1 gp41-induced cell-cell fusion between viral envelope expressing human HL2/3 cells to CD4/CCR5 receptor expressing TZM-bl cells in absence of HP23 to EC50 for inhibition of HIV1 gp41-induced cell-cell fusion between viral envelope expressing human HL2/3 cells to CD4/CCR5 receptor expressing TZM-bl cells at 2:1 compound to HP23 ratio.

For data set [13], the system named is Human immunodeficiency virus 1. The data set can be described thus: Synergistic antiviral activity against X4 tropic HIV-1 subtype-B 3B infected in human MT2 cells or CEMx174 5.25 M7 cells assessed as reduction in p24 Gag protein production by measuring combination index at 6:1 compound to HP23 ratio measured at 4 days post-infection by ELISA. The class given is functional, HIV-1 group M.

In data set [14] the test system is Human immunodeficiency virus 1. The data set can be described thus: Antiviral activity against R5 tropic HIV-1 subtype-B Bal infected in human MT2 cells or CEMx174 5.25 M7 cells assessed as reduction in p24 Gag protein production measured at 4 days post-infection by ELISA. The settings on record: Human immunodeficiency virus 1, Bal, 96 h. Type of data set: functional, cell-based, HIV-1 group M.

A short description of data set [15]: Metabolic stability in rat kidney homogenates assessed as parent compound remaining at 3 to 100 uM after 4 hrs by RP-HPLC analysis. The class given is ADME, tissue-based. The conditions noted are these: read-out: Stability.
The test system of data set [16] is Human immunodeficiency virus 1. The data set can be described thus: Antiviral activity against T20 resistant HIV1 NL4-3 harboring with V38E/N42T mutant infected in human MT2 cells or CEMx174 5.25 M7 cells assessed as reduction in p24 Gag protein production measured at 4 days post-infection by ELISA. The class given is functional, organism-based.
The test system of data set [17] is Human immunodeficiency virus 1. Nature of the data set: Antiviral activity against T20 resistant HIV1 NL4-3 harboring with V38E/N42S mutant infected in human MT2 cells or CEMx174 5.25 M7 cells assessed as reduction in p24 Gag protein production measured at 4 days post-infection by ELISA. Type of data set: functional, organism-based.
Data set [18] has as its system Human immunodeficiency virus 1. The data set can be described thus: Antiviral activity against T20 resistant HIV1 NL4-3 harboring with V38E/N42T mutant infected in human MT2 cells or CEMx174 5.25 M7 cells assessed as reduction in p24 Gag protein production at 300:1 hCS6ERE to compound ratio measured at 4 days post-infection by ELISA. Type of data set: functional, organism-based.

In data set [19] the test system is Human immunodeficiency virus 1. The data set can be described thus: Antiviral activity against T2635 resistant HIV1 LAI harboring Q66R mutant infected in human MT2 cells or CEMx174 5.25 M7 cells assessed as reduction in p24 Gag protein production at 25:1 ratio of hCS6ERE to compound measured at 4 days post infection by ELISA. The class given is functional, organism-based, M:B_Lai.

The subject of data set [20] is Human immunodeficiency virus 1. The data set can be described thus: Antiviral activity against T20 resistant HIV1 NL4-3 harboring with V38E/N42S mutant infected in human MT2 cells or CEMx174 5.25 M7 cells assessed as reduction in p24 Gag protein production at 7000:1 hCS6ERE to compound ratio measured at 4 days post-infection by ELISA. Type of data set: functional, organism-based.

Data set [21] deals with Human immunodeficiency virus 1. Nature of the data set: Antiviral activity against T20 resistant HIV1 NL4-3 harboring with V38E/N42S mutant infected in human MT2 cells or CEMx174 5.25 M7 cells assessed as reduction in p24 Gag protein production at 3500:1 hCS6ERE to compound ratio measured at 4 days post-infection by ELISA. The class given is functional, organism-based.
Data set [22] deals with Human immunodeficiency virus 1. The data set can be described thus: Antiviral activity against R5 tropic HIV-1 subtype-B Bal infected in human MT2 cells or CEMx174 5.25 M7 cells assessed as reduction in p24 Gag protein production at 12:1 ratio of hCS6ERE to compound measured at 4 days post-infection by ELISA. Type of data set: functional, cell-based, HIV-1 group M. The conditions noted are these: Human immunodeficiency virus 1, Bal, 96 h.

pEC50: −log10 of the molar value. Starred links: 1 amine or outer side, 2 acyl side, 3 side chain; linkers in the order of their positions; H or OH if unused. Positions of bridges follow the written chain, without caps; N, C: chain ends. Non-standard residues stand in square brackets, D forms with d. Residues, ends and D or L forms follow the SMILES beside them. ξ: configuration not given here. mXylylene = c1cc(C[*:1])cc(C[*:2])c1; ξhCys = NC(CCS)C(=O)O

Broadly, the pEC50 is the negative decadic logarithm of the EC50, by convention in mol/L. `CC[C@H](C)[C@H](NC(C)=O)C(=O)N[C@@H](CCC(=O)O)C(=O)N[C@@H](CCC(=O)O)C(=O)N[C@@H](CC(C)C)C(=O)N[C@H](C(=O)NC1CCSCc2cccc(c2)CSCCC(C(=O)N[C@@H](CCC(N)=O)C(=O)N[C@@H](CCC(N)=O)C(=O)N[C@@H](CCCNC(=N)N)C(=O)N[C@@H](CCCCN)C(=O)N[C@@H](CC(N)=O)C(=O)N[C@@H](CCC(=O)O)C(=O)N[C@@H](CCC(=O)O)C(=O)N[C@@H](C)C(=O)N[C@@H](CC(C)C)C(=O)N[C@@H](CCCNC(=N)N)C(=O)N[C@@H](CCC(=O)O)C(=O)N[C@@H](CC(C)C)C(N)=O)NC(=O)[C@H](CCC(N)=O)NC(=O)[C@H](C)NC(=O)[C@H](C)NC1=O)[C@@H](C)CC` (stereo partly drawn) (Ac-IEELI[ξhCys]AAQ[ξhCys]QQRKNEEALREL-NH2; linker 6-10 via mXylylene): the pEC50 was 7.66 in data set [1]; 7.57 to 7.96 in data set [7]; 7.06 in [11]; 7.81 to 7.82 in data set [14]; 6.00 in data set [16]; 5.16 in data set [17]. Also, the CI in data set [2] was 0.8; in [3], 0.9; in data set [8], 0.4; in data set [9], 0.4; in data set [10], 0.7; in data set [13], 0.8. Besides, the “Ratio EC50” value is 5 in data set [4], 3.8 in data set [5], 2.9 in [6] and 2 in [12]. Besides, in data set [15], the remaining at 4 h is 15.8%.

Turning to H-EMTWEEWEKKIEEYTKKIEEILK-OH, the negative-log EC50 (pEC50) in [1] is 8.47; in data set [18] it was 8.85; in [7] it was 8.60; in [19] it was 8.82; in [20], 9.40; in data set [21], 9.22. The pEC50 in [11] is 8.32; in data set [14], 8.59; in data set [16] it was 8.39; in data set [22] it was 9.30; in data set [17], 8.85.
